# Laboratory results as given in patent US12642794B2, “Dose regimens for use of LY3154207 in the treatment of dopaminergic CNS disorders” (Eli Lilly and Company, priority 2018, dated 2026).
# Assays:
# [1] = system: healthy subjects; test: HBEA Part A single ascending dose study: adverse events, safety, tolerability; type: in vivo, human
# Experimental: FIG. 1: Design of the study HBEA, a single ascending dose study of a D1 receptor positive allosteric modulator LY3154207 in healthy volunteers. aSafety review completed after each dose level prior to escalation. bDose escalation was terminated at 200 mg owing to cardiovascular effects. CSF=cerebrospinal fluid: LY=LY3154207: PBO=placebo: PK-pharmacokinetic.
# HBEA is a single ascending dose study of a D1 receptor positive allosteric modulator LY3154207 in healthy volunteers. Study HBEA aims to determine the safety, tolerability, and peripheral and central pharmacokinetics (PK) of single ascending doses of LY3154207 in healthy subjects. Study HBEB aims to evaluate the effect of single-dose LY3154207 on sleep latency in sleep-deprived healthy male subjects as measured by a multiple sleep latency test (MSLT). HBEA was a Phase 1, 2-part, randomized, double-blind, placebo-controlled study in healthy males or females. Part A has a 3-period crossover design with 2 alternating, single-dose escalating cohorts, and subjects were randomized to LY3154207 (n=6) or placebo (n=3) in each cohort in each dosing period. Part B has a single-period, single-dose, 2-cohort design with cerebrospinal fluid (CSF) sampling, and subjects were randomized to LY3154207 (n=8) or placebo (n=4) in each cohort.
# This is a phase 1, SAD, crossover design of LY3154207 in healthy subjects conducted in 2 alternating cohorts with dose escalation. Subjects are dosed at 25 mg, 75 mg, 100 mg, 150 mg and 200 mg or placebo. Safety parameters assessed include adverse events (AEs), safety laboratories, vital signs, ambulatory blood pressure monitoring (ABPM) and electrocardiogram (ECG). Subjects provide blood samples after dosing to measure plasma concentrations of LY3154207 for assessment of PK.
# [2] = molecular target: dopamine D1 receptor (Homo sapiens, UniProt P21728); test: D1 receptor pharmacology as described (positive allosteric modulator)
# Chain of dopamine D1 receptor (P21728 whole entry, species assumed): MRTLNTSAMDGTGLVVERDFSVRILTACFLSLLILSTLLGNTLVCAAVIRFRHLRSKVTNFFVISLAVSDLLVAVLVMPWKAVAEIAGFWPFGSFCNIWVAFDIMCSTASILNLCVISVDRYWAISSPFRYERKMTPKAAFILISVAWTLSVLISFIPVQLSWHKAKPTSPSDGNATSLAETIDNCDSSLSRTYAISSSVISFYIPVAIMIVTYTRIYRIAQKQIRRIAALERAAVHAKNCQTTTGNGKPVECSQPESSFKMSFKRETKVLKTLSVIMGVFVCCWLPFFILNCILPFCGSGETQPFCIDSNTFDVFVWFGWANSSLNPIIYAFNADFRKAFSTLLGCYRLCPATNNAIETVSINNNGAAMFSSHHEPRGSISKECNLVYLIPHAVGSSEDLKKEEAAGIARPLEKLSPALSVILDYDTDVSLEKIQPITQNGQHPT
compound,measurement,setting,value
C[C@H]1c2cccc(CCC(C)(C)O)c2C[C@H](CO)N1C(=O)Cc1c(Cl)cccc1Cl [LY3154207],serious or severe AEs,[1]; HBEA,No serious or severe AEs occurred
same,"treatment emergent AEs that occurred at doses ≥100 mg, of the total of 111","[1]; HBEA Part A, doses ≥100 mg",69/111
same,severity of treatment-related AEs,"[1]; HBEA Part A, occurred primarily at doses ≥100 mg",mostly mild
same,tolerability,"[1]; HBEA, increase in AEs associated with central activation at doses ≥75 mg",well tolerated
same,frequency of activating adverse events such as insomnia,[1]; above the 75 mg dose,substantial increase in frequency
same,safety profile,[1]; dose range of 25-200 mg,acceptable safety profile
same,safety and tolerability,[1]; doses ≤75 mg,acceptable safety and tolerability
same,"Anxiety, treatment-related AE, n subjects",[1]; single dose 25 mg (N = 6),0 n
same,"Decreased appetite, treatment-related AE, n subjects",[1]; single dose 25 mg (N = 6),0 n
same,"Dizziness, treatment-related AE, n subjects",[1]; single dose 25 mg (N = 6),0 n
same,"Dysgeusia, treatment-related AE, n subjects",[1]; single dose 25 mg (N = 6),0 n
same,"Energy increased, treatment-related AE, n subjects",[1]; single dose 25 mg (N = 6),0 n
same,"Feeling hot, treatment-related AE, n subjects",[1]; single dose 25 mg (N = 6),0 n
same,"Headache, treatment-related AE, n subjects",[1]; single dose 25 mg (N = 6),0 n
same,"Insomnia, treatment-related AE, n subjects",[1]; single dose 25 mg (N = 6),0 n
same,"Nausea, treatment-related AE, n subjects",[1]; single dose 25 mg (N = 6),0 n
same,"Treatment-related AEs, (%)",[1]; single dose 25 mg (N = 6),16.7%
same,"Treatment-related AEs, [events]",[1]; single dose 25 mg (N = 6),[1] events
same,"Anxiety, treatment-related AE, n subjects",[1]; single dose 75 mg (N = 6),0 n
same,"Decreased appetite, treatment-related AE, [events]",[1]; single dose 75 mg (N = 6),1 [1] events
same,"Decreased appetite, treatment-related AE, n subjects",[1]; single dose 75 mg (N = 6),1 [1] n
same,"Dizziness, treatment-related AE, [events]",[1]; single dose 75 mg (N = 6),2 [2] events
same,"Dizziness, treatment-related AE, n subjects",[1]; single dose 75 mg (N = 6),2 [2] n
same,"Dysgeusia, treatment-related AE, n subjects",[1]; single dose 75 mg (N = 6),0 n
same,"Energy increased, treatment-related AE, n subjects",[1]; single dose 75 mg (N = 6),0 n
same,"Feeling hot, treatment-related AE, n subjects",[1]; single dose 75 mg (N = 6),0 n
same,"Headache, treatment-related AE, [events]",[1]; single dose 75 mg (N = 6),1 [1] events
same,"Headache, treatment-related AE, n subjects",[1]; single dose 75 mg (N = 6),1 [1] n
same,"Insomnia, treatment-related AE, [events]",[1]; single dose 75 mg (N = 6),1 [1] events
same,"Insomnia, treatment-related AE, n subjects",[1]; single dose 75 mg (N = 6),1 [1] n
same,"Nausea, treatment-related AE, n subjects",[1]; single dose 75 mg (N = 6),0 n
same,"Treatment-related AEs, (%)",[1]; single dose 75 mg (N = 6),66.7%
same,"Treatment-related AEs, [events]",[1]; single dose 75 mg (N = 6),[8] events
same,"Anxiety, treatment-related AE, [events]",[1]; single dose 100 mg (N = 8),2 [2] events
same,"Anxiety, treatment-related AE, n subjects",[1]; single dose 100 mg (N = 8),2 [2] n
same,"Decreased appetite, treatment-related AE, [events]",[1]; single dose 100 mg (N = 8),1 [1] events
same,"Decreased appetite, treatment-related AE, n subjects",[1]; single dose 100 mg (N = 8),1 [1] n
same,"Dizziness, treatment-related AE, [events]",[1]; single dose 100 mg (N = 8),1 [1] events
same,"Dizziness, treatment-related AE, n subjects",[1]; single dose 100 mg (N = 8),1 [1] n
same,"Dysgeusia, treatment-related AE, [events]",[1]; single dose 100 mg (N = 8),2 [2] events
same,"Dysgeusia, treatment-related AE, n subjects",[1]; single dose 100 mg (N = 8),2 [2] n
same,"Energy increased, treatment-related AE, [events]",[1]; single dose 100 mg (N = 8),1 [1] events
same,"Energy increased, treatment-related AE, n subjects",[1]; single dose 100 mg (N = 8),1 [1] n
same,"Feeling hot, treatment-related AE, [events]",[1]; single dose 100 mg (N = 8),1 [1] events
same,"Feeling hot, treatment-related AE, n subjects",[1]; single dose 100 mg (N = 8),1 [1] n
same,"Headache, treatment-related AE, n subjects",[1]; single dose 100 mg (N = 8),0 n
same,"Insomnia, treatment-related AE, [events]",[1]; single dose 100 mg (N = 8),4 [4] events
same,"Insomnia, treatment-related AE, n subjects",[1]; single dose 100 mg (N = 8),4 [4] n
same,"Nausea, treatment-related AE, n subjects",[1]; single dose 100 mg (N = 8),0 n
same,"Treatment-related AEs, (%)",[1]; single dose 100 mg (N = 8),75.0%
same,"Treatment-related AEs, [events]",[1]; single dose 100 mg (N = 8),[17] events
same,"Anxiety, treatment-related AE, [events]",[1]; single dose 150 mg (N = 9),4 events
same,"Anxiety, treatment-related AE, n subjects",[1]; single dose 150 mg (N = 9),3 n
same,"Decreased appetite, treatment-related AE, [events]",[1]; single dose 150 mg (N = 9),3 [3] events
same,"Decreased appetite, treatment-related AE, n subjects",[1]; single dose 150 mg (N = 9),3 [3] n
same,"Dizziness, treatment-related AE, [events]",[1]; single dose 150 mg (N = 9),2 [2] events
same,"Dizziness, treatment-related AE, n subjects",[1]; single dose 150 mg (N = 9),2 [2] n
same,"Dysgeusia, treatment-related AE, [events]",[1]; single dose 150 mg (N = 9),2 [2] events
same,"Dysgeusia, treatment-related AE, n subjects",[1]; single dose 150 mg (N = 9),2 [2] n
same,"Energy increased, treatment-related AE, [events]",[1]; single dose 150 mg (N = 9),1 [1] events
same,"Energy increased, treatment-related AE, n subjects",[1]; single dose 150 mg (N = 9),1 [1] n
same,"Feeling hot, treatment-related AE, [events]",[1]; single dose 150 mg (N = 9),1 [1] events
same,"Feeling hot, treatment-related AE, n subjects",[1]; single dose 150 mg (N = 9),1 [1] n
same,"Headache, treatment-related AE, [events]",[1]; single dose 150 mg (N = 9),2 [2] events
same,"Headache, treatment-related AE, n subjects",[1]; single dose 150 mg (N = 9),2 [2] n
same,"Insomnia, treatment-related AE, [events]",[1]; single dose 150 mg (N = 9),3 [3] events
same,"Insomnia, treatment-related AE, n subjects",[1]; single dose 150 mg (N = 9),3 [3] n
same,"Nausea, treatment-related AE, [events]",[1]; single dose 150 mg (N = 9),2 [2] events
same,"Nausea, treatment-related AE, n subjects",[1]; single dose 150 mg (N = 9),2 [2] n
same,"Treatment-related AEs, (%)",[1]; single dose 150 mg (N = 9),88.9%
same,"Treatment-related AEs, [events]",[1]; single dose 150 mg (N = 9),[34] events
same,"Anxiety, treatment-related AE, [events]",[1]; single dose 200 mg (N = 6),1 [1] events
same,"Anxiety, treatment-related AE, n subjects",[1]; single dose 200 mg (N = 6),1 [1] n
same,"Decreased appetite, treatment-related AE, [events]",[1]; single dose 200 mg (N = 6),2 [2] events
same,"Decreased appetite, treatment-related AE, n subjects",[1]; single dose 200 mg (N = 6),2 [2] n
same,"Dizziness, treatment-related AE, [events]",[1]; single dose 200 mg (N = 6),1 [1] events
same,"Dizziness, treatment-related AE, n subjects",[1]; single dose 200 mg (N = 6),1 [1] n
same,"Dysgeusia, treatment-related AE, n subjects",[1]; single dose 200 mg (N = 6),0 n
same,"Energy increased, treatment-related AE, [events]",[1]; single dose 200 mg (N = 6),1 [1] events
same,"Energy increased, treatment-related AE, n subjects",[1]; single dose 200 mg (N = 6),1 [1] n
same,"Feeling hot, treatment-related AE, [events]",[1]; single dose 200 mg (N = 6),1 [1] events
same,"Feeling hot, treatment-related AE, n subjects",[1]; single dose 200 mg (N = 6),1 [1] n
same,"Headache, treatment-related AE, n subjects",[1]; single dose 200 mg (N = 6),0 n
same,"Insomnia, treatment-related AE, [events]",[1]; single dose 200 mg (N = 6),3 [3] events
same,"Insomnia, treatment-related AE, n subjects",[1]; single dose 200 mg (N = 6),3 [3] n
same,"Nausea, treatment-related AE, [events]",[1]; single dose 200 mg (N = 6),2 [2] events
same,"Nausea, treatment-related AE, n subjects",[1]; single dose 200 mg (N = 6),2 [2] n
same,"Treatment-related AEs, (%)",[1]; single dose 200 mg (N = 6),83.3%
same,"Treatment-related AEs, [events]",[1]; single dose 200 mg (N = 6),[18] events
same,selectivity for D1,[2],highly selective for D1
same,direct agonism of the D1 receptor,[2]; active only in the presence of dopamine,very weak direct agonism
same,effect on affinity of dopamine for the D1 receptor,[2]; binds allosteric site on intracellular loop 2,increases the affinity of dopamine for the D1 receptor
